For orientation: MIC means the smallest concentration in the dilution series that meets the test's criterion for growth inhibition. Read a high MIC as a less susceptible organism. One may read the MBC as the lowest tested concentration that kills the bacteria rather than only halting them. Low values mean greater bactericidal potency, high ones weaker bactericidal potency. In general, IC50 refers to the midpoint of a concentration-inhibition curve.

Each structure is given as a SMILES string. Values after ≈ are worked out from the molar mass of the structure shown. Bridge positions count the residues as written; N and C are the ends. Peptide text beside a SMILES is read from it.

Data set [1] concerns horse red blood cells. The data set is described as follows: Hemolytic activity (hemoglobin release). On the procedure: Both peptides were tested for hemolytic activity on horse red blood cells (RBCs), as described earlier. Briefly, fresh RBCs in PBS (pH 7.4) were first centrifuged 3 × 1500× g for 5 min, then diluted 1:10 with PBS to yield an RBC concentration of ~5 × 10^8 cells/mL. RBCs were then incubated for 1 h at 37 °C with 2-fold serial dilutions of PaD or Ct_PaD covering a 0.24–250 μM concentration range. Next, 0.1% TritonX100 and PBS were used as positive and negative controls, respectively. After incubation, samples were centrifuged at 1500× g for 10 min at room temperature and the supernatant (60 μL) was transferred to a flat-bottomed 96-well polypropylene microplate (Greiner, Frickenhausen, Germany). Hemoglobin release was then measured as OD at 540 nm in a VICTOR3 microplate reader (Perkin Elmer, Waltham, MA, USA). Percent hemolysis was calculated as indicated below (Equation (1)).

Data set [2] relates to Escherichia coli. The following applies: E. coli BW25113. On the procedure: (§1) Antimicrobial activities of both PaD and Ct_PaD were determined in a modified microdilution assay as described previously for other β-defensins such as peptides. The assay was performed in sterile polypropylene 96-well plates that prevent peptide binding (Greiner, Frickenhausen, Germany). From a bacterial isolate, a single colony was seeded in Mueller Hinton Broth (MHB, Condalab, Torrejón de Ardoz, Spain) and allowed to grow at 37 °C in an incubator with orbital shaking at 250 rpm overnight. Subsequently, a new bacterial culture was seeded from the overnight culture and allowed to grow to an OD of 0.5 at 600 nm. The bacterial suspension was diluted to a final concentration of 5 × 10^5 CFU (colony formation unit)/mL in sterile 10 mM phosphate buffer (PB: 2.46 mM NaH2PO4, 7.5 mM Na2HPO4, pH 7.4), used as the working culture. Next, 50 μL of 2-fold serial dilutions of each peptide in PB were placed on the plates to provide a final 0.097–100 µM concentration range after which 50 μL of working culture was applied to each well. The plate was first incubated for 2 h at 37 °C, then 100 μL of MHB 2× was added to each well and was incubated at 37 °C overnight with shaking. The growth of bacteria was measured by the optical density at 600 nm in a microplate reader (Tecan, Männedorf, Switzerland). The minimum inhibitory concentration (MIC) was defined as the minimum peptide concentration in which the microorganism is unable to grow. The results are the average of three independent studies. […] MBC was defined for each peptide as the lowest concentration with no bacterial growth detected.

Data set [3] concerns Enterococcus faecium. The following applies: E. faecium ATCC 19434. On the procedure:
as §1

Data set [4] concerns Pseudomonas aeruginosa. The following applies: P. aeruginosa ATCC 15692. How it is done:
as §1

The subject of data set [5] is Acinetobacter baumannii. The following applies: A. baumannii ATCC 15308. How it is done:
as §1

In data set [6] the test system is Staphylococcus aureus. The following applies: S. aureus ATCC 12600. On the procedure:
as §1

Data set [7] relates to Micrococcus luteus. The following applies: M. luteus ATCC 15,307. How it is done:
as §1

The nature of data set [8]: MTT cytotoxicity assay. In kind it is cell-based. The following applies: human; MRC-5 cells, 4 h peptide incubation, 1.56–200 μM, MTT, OD 570 nm; average of three independent replicates; read-out: MRC-5 cytotoxicity (IC50). How it is done:
MRC-5 cells were cultured in Eagle’s minimum essential medium (MEMα), supplemented with 10% (v/v) fetal bovine serum (FBS) and a 1% penicillin (100 IU/mL)/streptomycin (100 μg/mL) solution, and maintained at 37 °C in a humidified atmosphere with 5% CO2. After cells were grown, they were seeded into 96-well plates at 3 × 10^4 cells/well and cultured overnight to adhere to the plate. Subsequently, adherent cells were incubated for 4 h under standard conditions (5% CO2, 37 °C) with 2-fold serial dilutions of each peptide in a 1.56–200 μM concentration range. Following incubation, the peptide-containing medium was replaced with MEM supplemented with FBS and 3-(4,5-dimethylthiazol-2-yl)-2,5 diphenyltetrazolium bromide (MTT) at 0.4 mg/mL, and the cells were further incubated for 120 min. Formazan crystals in live cells were detected after disruption with 200 μL of DMSO by OD measurement at 570 nm in a Tecan microplate reader. […] Data are the average of three independent replicates.

Data set [9] can be described thus: Analytical RP-HPLC retention time as measure of hydrophobic character. The following applies: chromatographic, Luna C18 4.6 × 50 mm, 3 µm; 10 to 50 linear gradient of MeCN (0.036% TFA) into H2O (0.045% TFA) over 15 min, 1 mL/min, UV 220 nm; used as indicator of hydrophobic character. It is filed as physicochemical. On the procedure:
Analytical RP-HPLC was performed on an LC-2010 instrument (Shimadzu, Kyoto, Japan) using a Luna C18 column (4.6 × 50 mm, 3 µm; Phenomenex, Torrance, CA, USA), eluted with linear gradients of solvent B (0.036% TFA in MeCN) into solvent A (0.045% TFA in H2O) over 15 min at a 1 mL/min flow rate, with UV detection at 220 nm.
The HPLC retention times of PaD and Ct_PaD reflect some differences in hydrophobic character. […] Such differences in hydrophobicity might influence both antimicrobial and cytotoxic activity, which were therefore assessed next.
Supplementary Materials: The C-terminus of Panusin, a Lobster β-defensin, Is Crucial for Optimal Antimicrobial
Activity and Serum Stability
Roberto Bello-Madruga, Javier Valle, M. Ángeles Jiménez, Marc Torrent, Vivian Montero-Alejoand David Andreu
1. Synthetic Peptide Characterization
Table S1. Peptide Analytical Data.
1 Theoretical Experimental HPLC Retention Purity
Peptide Mass (Da) Mass (Da)2 Time (min)3 (HPLC, %)4
1 All peptides are C-terminal carboxamides; 2 Determined by LC-MS, 3 Elution was carried out with a 10 to 50 linear gradient over 15 min; 4 Determined by analytical HPLC.
Figure S1. RP-HPLC elution profile of purified peptides. […]

Where [10] appears, read: 10 mM phosphate buffer pH 7.4, 2 h at 37 °C, then MHB overnight, OD 600 nm, average of three independent studies.
[11] abbreviates: plated, 37 °C, 24 h, lowest concentration with no bacterial growth.

Take `CC[C@H](C)[C@H](NC(=O)[C@H](CCCCN)NC(=O)[C@H](CCC(=O)O)NC(=O)[C@H](CCCCN)NC(=O)[C@H](CO)NC(=O)[C@H](CCCCN)NC(=O)[C@H](CCCNC(=N)N)NC(=O)[C@H](Cc1ccccc1)NC(=O)[C@H](Cc1ccccc1)NC(=O)[C@H](CC(=O)O)NC(=O)CNC(=O)[C@H](CC(C)C)NC(=O)[C@@H](N)CC(C)C)C(=O)NCC(=O)N[C@@H](CCCCN)C(=O)N[C@@H](CCC(=O)O)C(=O)N[C@@H](Cc1ccccc1)C(=O)N[C@@H](CCCCN)C(=O)N[C@@H](CCCNC(=N)N)C(=O)N[C@H](C(=O)N[C@H](C(=O)N[C@@H](CCC(N)=O)C(=O)N[C@@H](CCCNC(=N)N)C(=O)N[C@H](C(=O)N[C@@H](CCCCN)C(=O)N[C@@H](CC(=O)O)C(=O)N[C@@H](Cc1ccccc1)C(=O)N[C@@H](CC(C)C)C(=O)N[C@@H](CCCNC(=N)N)C(=O)N[C@@H](CC(N)=O)C(=O)N[C@@H](CC(C)C)C(=O)N[C@H](C(=O)N1CCC[C@H]1C(=O)N[C@@H](CCCNC(=N)N)C(=O)N[C@H](C(=O)N[C@@H](CCC(=O)O)C(=O)N[C@@H](CO)C(=O)O)[C@@H](C)O)C(C)C)[C@@H](C)CC)C(C)C)[C@@H](C)CC` [LL-37, reference compound]: in data set [1] (horse RBCs ~5 × 10^8 cells/mL in PBS pH 7.4, 1 h, 37 °C, 250 µM peptide, OD 540 nm, vs 0.1% TritonX100, average of three independent replicates), the “Hemolysis % (250 µM peptide)” value amounted to 17.5 ± 0.3%. The MIC stood at 1.6 µM (≈ 7.19 µg/mL) in data set [2] (5 × 10^5 CFU/mL in 10 mM phosphate buffer pH 7.4, 2 h at 37 °C, then MHB overnight, OD 600 nm, average of three independent studies); 1.6 µM (≈ 7.19 µg/mL) in data set [3] (setting [10]); 1.6 µM (≈ 7.19 µg/mL) in data set [4] (setting [10]); 6.3 µM (≈ 28.3 µg/mL) in data set [5] (setting [10]); 25 µM (≈ 112 µg/mL) in data set [6] (setting [10]); 1.6 µM (≈ 7.19 µg/mL) in data set [7] (setting [10]). Besides, the MBC worked out at 3.1 µM (≈ 13.9 µg/mL) in data set [2] (50 μL of wells seeded into Petri plates, 37 °C, 24 h, lowest concentration with no bacterial growth); 3.1 µM (≈ 13.9 µg/mL) in data set [3] (setting [11]); 1.6 µM (≈ 7.19 µg/mL) in data set [4] (setting [11]); 6.3 µM (≈ 28.3 µg/mL) in data set [5] (setting [11]); 25 µM (≈ 112 µg/mL) in [6] (setting [11]); 3.1 µM (≈ 13.9 µg/mL) in data set [7] (setting [11]).

Consider `CC(C)C[C@@H]1NC(=O)[C@H](CCCNC(=N)N)NC(=O)[C@H](CC(N)=O)NC(=O)CNC(=O)[C@H](Cc2ccc(O)cc2)NC(=O)[C@@H]2CCCN2C(=O)[C@@H](NC(=O)[C@@H](N)Cc2ccc(O)cc2)CSSC[C@@H](C(=O)N[C@@H](CCCNC(=N)N)C(=O)N[C@@H](CCCNC(=N)N)C(=O)N[C@@H](CO)C(=O)N[C@@H](Cc2ccc(O)cc2)C(N)=O)NC(=O)[C@@H]2CSSC[C@H](NC(=O)[C@H](Cc3ccccc3)NC(=O)[C@H](Cc3ccc(O)cc3)NC(=O)[C@H](CC(N)=O)NC1=O)C(=O)N1CCC[C@H]1C(=O)N[C@@H](CC(C)C)C(=O)NCC(=O)N[C@@H](CCCNC(=N)N)C(=O)N[C@@H]([C@@H](C)O)C(=O)N2` [Ct_PaD] (H-YCPYGNRLNYFCPLGRTCCRRSY-NH2; disulfide 2-19, 12-18; N-terminus assumed), for which the “Hemolytic activity (result in words)” value in data set [1] (horse red blood cell lysis, tested up to 250 μM, hemoglobin release at 540 nm) is on record as “absence of hemolytic activity”. In addition, in data set [8], the half-maximal inhibitory concentration (IC50) at 4 h came out at 175 ± 1.5 µM. In addition, the “HPLC Retention Time” value in [9] is recorded as 6.65 min.

The values above are taken from paper PMC10301333, “The C-Terminus of Panusin, a Lobster β-Defensin, Is Crucial for Optimal Antimicrobial Activity and Serum Stability” (Pharmaceutics, 2023).
